Literature values, collected in publication PMC8508678, “Novel P2X7 Antagonist Ameliorates the Early Phase of ALS Disease and Decreases Inflammation and Autophagy in SOD1-G93A Mouse Model” (International Journal of Molecular Sciences, 2021).
Where two headings read alike, the source gives them in different places.

Tests used:
SOD1-G93A mice [1] = system: SOD1-G93A mice; design: key to NF-κB / NOX2 / P2X7 / ARG1 / CD68 / GFAP / LC3B-II: The symbol ↑ refers to upregulation; ↓ to downregulation; = indicates no change with respect to the vehicle-treated SOD1-G93A mice
SOD1-G93A mice [2] = system: SOD1-G93A mice; design: key to Motor Neuron loss: The symbol ↑ refers to upregulation; ↓ to downregulation; = indicates no change with respect to the vehicle-treated SOD1-G93A mice
SOD1-G93A mice [3] = system: SOD1-G93A mice; design: key to Motor behavior / Survival: The symbol ↑ refers to upregulation; ↓ to downregulation; = indicates no change with respect to the vehicle-treated SOD1-G93A mice
[4] = SOD1-G93A mice, vs vehicle ref 31
[5] = SOD1-G93A mice, vs vehicle ref 28, 29
[6] = ALS mice, four times per week starting at post-natal day 60 ref 41

In the case of `C[C@H](N=C(NC#N)Nc1cccc2ncccc12)c1ccccc1` [A804598], the “P2X7 expression levels in the spinal cord” value (SOD1-G93A mice [1]; SOD1-G93A mice ref 31) is given as “failed to affect”, the “autophagic substrate p62 accumulating in vivo” value (SOD1-G93A mice [1]; SOD1-G93A mice ref 31) is given as “decreases” and the “motor neuron loss or astrogliosis and microgliosis in the spinal cord” value (SOD1-G93A mice [1]; SOD1-G93A mice ref 31) is given as “neither A804598 nor AXX13 treatments affected”. For the same compound, the ARG1 (SOD1-G93A mice [1]; [4]) was “=”, the CD68 (SOD1-G93A mice [1]; [4]) was “=” and the GFAP (SOD1-G93A mice [1]; [4]) was “=”. The LC3B-II (SOD1-G93A mice [1]; [4]) was “=”, the NF-κB (SOD1-G93A mice [1]; [4]) was “=” and the NOX2 (SOD1-G93A mice [1]; [4]) was “=”. For the same compound, the P2X7 (SOD1-G93A mice [1]; [4]) was “=”, the “IL-1β mRNA expression” value (SOD1-G93A mice [1]; SOD1-G93A mice, only this inflammatory marker affected ref 31) was “downregulated” and the “Motor Neuron loss” value (SOD1-G93A mice [2]; [4]) was “=”. The “amelioration of disease progression” value (SOD1-G93A mice [3]; SOD1-G93A mice ref 31) was “failed”, the Motor behavior (SOD1-G93A mice [3]; [4]) was “=” and the Survival (SOD1-G93A mice [3]; [4]) was “=”.
For `CCOc1ccc(Nc2ccc(/C(=C3C=C/C(=[N+](/CC)Cc4cccc(S(=O)(=O)[O-])c4)C=C/3C)c3ccc(N(CC)Cc4cccc(S(=O)(=O)O)c4)cc3C)cc2)cc1` [BBG, brilliant blue G], the microgliosis (SOD1-G93A mice [1]; SOD1-G93A mice ref 29) is given as “reduces”, the GFAP (SOD1-G93A mice [1]; [5]) is given as “=” and the P2X7 (SOD1-G93A mice [1]; [5]) is given as “=”. The “motor neuron survival in the lumbar spinal cord” value (SOD1-G93A mice [2]; SOD1-G93A mice ref 29) was “enhances”, the disease onset (SOD1-G93A mice [3]; ALS mice, modest improvement in general conditions and motor performance ref 29) was “induces a delay of disease onset” and the Survival (SOD1-G93A mice [3]; [5]) was “=”.
In the case of `O=C(NCC1(N2CCN(c3ccccc3)CC2)CCOCC1)c1cccnc1Sc1ccccc1` [JNJ-47965567], the “disease onset, body weight loss and motor parameters” value (SOD1-G93A mice [3]; [6]) is given as “able to delay disease onset, reduce body weight loss, and improve the motor parameters”, the “survival or motor neuron number” value (SOD1-G93A mice [3]; [6]) is given as “without affecting” and the “survival, disease progression, molecular and cellular parameters of ALS” value (SOD1-G93A mice [3]; SOD1-G93A mice, three times per week from the early symptomatic phase ref 32) is given as “totally failed”.
